Source: patent US11666577B2 (National Institute of Biological Sciences, Beijing, priority 2018, dated 2023)
Like-named read-outs stand apart in the source and are kept apart here.

What was measured:
HT-29 cells = assay: Necroptosis assay (TNF-α/Smac mimetic/z-VAD, TSZ-induced) in HT-29 cells; type: cell-based, human
How it was run: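 HT-29 cells were challenged with 20 ng/ml TNF-α, 100 nM Smac mimetic and 20 mM z-VAD while compound was added at the same time (library screen at 10 mM). After 24 h, viability was read as ATP luminescence (CellTiter-Glo) and normalized to DMSO-treated cells; values are means ± SD of duplicates.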

VEGFR2 = VEGFR2 (Homo sapiens, UniProt P35968); conditions: cited from earlier work
RIP1 = target: T1, RIP1 (Homo sapiens, UniProt Q13546); assay: RIP1 kinase activity enzymatic assay; type: biochemical
T1 sequence (Q13546 1-671): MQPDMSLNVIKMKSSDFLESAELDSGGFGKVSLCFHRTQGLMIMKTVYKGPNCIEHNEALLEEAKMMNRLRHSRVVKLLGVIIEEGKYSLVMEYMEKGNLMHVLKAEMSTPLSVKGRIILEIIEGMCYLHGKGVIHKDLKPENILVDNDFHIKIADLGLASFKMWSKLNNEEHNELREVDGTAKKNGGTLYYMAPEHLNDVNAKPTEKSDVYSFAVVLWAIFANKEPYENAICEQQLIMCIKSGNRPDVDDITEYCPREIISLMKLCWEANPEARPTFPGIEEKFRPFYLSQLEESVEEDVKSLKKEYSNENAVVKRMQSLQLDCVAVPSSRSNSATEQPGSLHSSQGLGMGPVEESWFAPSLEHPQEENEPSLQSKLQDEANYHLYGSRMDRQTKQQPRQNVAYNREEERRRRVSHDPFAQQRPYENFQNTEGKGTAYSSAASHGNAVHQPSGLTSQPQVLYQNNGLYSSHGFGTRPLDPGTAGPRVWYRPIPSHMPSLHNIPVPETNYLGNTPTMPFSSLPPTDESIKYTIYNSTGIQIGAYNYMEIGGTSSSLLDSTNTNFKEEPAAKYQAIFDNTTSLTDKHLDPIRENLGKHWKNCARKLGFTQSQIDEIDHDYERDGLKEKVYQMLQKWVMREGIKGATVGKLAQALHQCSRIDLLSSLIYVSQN
Method: (§1) To determine whether the direct target of this series of compounds is MLKL, we performed activity based protein profiling (ABPP). Compound 12, an affinity probe, was incubated with MLKL-flag-HT-29 cell lysates for 2 hours, followed by a click reaction to conjugate the probe to a biotin-tag. The biotin-labeled compound-protein complexes were pulled down and analysed via SDS-PAGE.

pMLKL = assay: Immunofluorescence staining of pMLKL in HT-29 cells; type: cell-based, human; conditions: monoclonal anti-pMLKL antibody, Experimental-section numbering
From the text: This is a crucial step in the translocation of MLKL from the cytoplasm to the cell membrane, where it mediates ion influx and/or causes the disruption of cell structures.^[5] To evaluate the mechanism of this series of compounds on MLKL, we detected the status (state of oligomerization and phosphorylation) of MLKL under TSZ stimulation in the presence of compound 12 or 15. […] Next, we evaluated the effects of MLKL inhibitors on the translocation of MLKL from the cytoplasm to the cell membrane. HT-29 cells were treated with TSZ in the presence of RIPA-56, NSA, compound 12, or compound 15 for 6 h. The proteins from cell lysates were separated and the soluble phase and membrane phase were analyzed separately with anti-MLKL and anti-pMLKL antibodies. […] We also performed immunofluorescence staining in HT-29 cells using a monoclonal anti-pMLKL antibody. After TSZ stimulation, large, bright-green fluorescent dots (pMLKL) were present in the plasma membrane. […] Sun, X. Wang, Trends Biochem. Sci 2014, 39, 587-593; bM. Pasparakis, P. Vandenabeele, Nature 2015, 517, 311-320. • 2. N. Holler, R. Zaru, O. Micheau, M. Thome, A. Attinger, S. Valitutti, J.-L. Bodmer, P. Schneider, B. Seed, J. Tschopp, Nat. Immunol. 2000, 1, 489-495. • 3. aS. He, L. Wang, L. Miao, T. Wang, F. Du, L. Zhao, X. Wang, Cell 2009, 137, 1100-1111; bD.-W. Zhang, J. Shao, J. Lin, N. Zhang, B.-J. Lu, S.-C. Lin, M.-Q. Dong, J. Han, Science 2009, 325, 332-336. • 4. L. Sun, H. et al. Cell 2012, 148, 213-227. • 5. aH. Wang, L. Sun, L. Su, J. Rizo, L. Liu, L.-F. Wang, F.-S. Wang, X. Wang, Mol. Cell 2014, 54, 133-146; bZ. Cai, S. Jitkaew, J. Zhao, H.-C. Chiang, S. Choksi, J. Liu, Y. Ward, L.-g. Wu, Z.-G. Liu, Nat. Cell Biol. 2014, 16, 55-65. • 6. aJ. Wu, et al., Cell Res. 2013, 23, 994-1006; bD. Ofengeim, Y. Ito, A. Najafov, Y. Zhang, B. Shan, J. P. DeWitt, J. Ye, X. Zhang, A. Chang, H. Vakifahmetoglu-Norberg, Cell reports 2015, 10, 1836-1849; cM. Pierdomenico, A. Negroni, L. Stronati, R. Vitali, E. Prete, J. Bertin, P. J. Gough, M. Aloi, S. Cucchiara, Am J. Gastroenterol. 2014, 109, 279-287. • 7. […]

RIP3 = RIP3 (Homo sapiens, UniProt Q9Y572); assay: RIP3 kinase activity enzymatic assay; type: biochemical
Method: as §1

[1] = Series 1 (Table 1) compounds 147-176, activity extrapolated, read-out: Series 1 compound necroptosis activity (extrapolated)

Chain of VEGFR2 (P35968 20-1356, species assumed): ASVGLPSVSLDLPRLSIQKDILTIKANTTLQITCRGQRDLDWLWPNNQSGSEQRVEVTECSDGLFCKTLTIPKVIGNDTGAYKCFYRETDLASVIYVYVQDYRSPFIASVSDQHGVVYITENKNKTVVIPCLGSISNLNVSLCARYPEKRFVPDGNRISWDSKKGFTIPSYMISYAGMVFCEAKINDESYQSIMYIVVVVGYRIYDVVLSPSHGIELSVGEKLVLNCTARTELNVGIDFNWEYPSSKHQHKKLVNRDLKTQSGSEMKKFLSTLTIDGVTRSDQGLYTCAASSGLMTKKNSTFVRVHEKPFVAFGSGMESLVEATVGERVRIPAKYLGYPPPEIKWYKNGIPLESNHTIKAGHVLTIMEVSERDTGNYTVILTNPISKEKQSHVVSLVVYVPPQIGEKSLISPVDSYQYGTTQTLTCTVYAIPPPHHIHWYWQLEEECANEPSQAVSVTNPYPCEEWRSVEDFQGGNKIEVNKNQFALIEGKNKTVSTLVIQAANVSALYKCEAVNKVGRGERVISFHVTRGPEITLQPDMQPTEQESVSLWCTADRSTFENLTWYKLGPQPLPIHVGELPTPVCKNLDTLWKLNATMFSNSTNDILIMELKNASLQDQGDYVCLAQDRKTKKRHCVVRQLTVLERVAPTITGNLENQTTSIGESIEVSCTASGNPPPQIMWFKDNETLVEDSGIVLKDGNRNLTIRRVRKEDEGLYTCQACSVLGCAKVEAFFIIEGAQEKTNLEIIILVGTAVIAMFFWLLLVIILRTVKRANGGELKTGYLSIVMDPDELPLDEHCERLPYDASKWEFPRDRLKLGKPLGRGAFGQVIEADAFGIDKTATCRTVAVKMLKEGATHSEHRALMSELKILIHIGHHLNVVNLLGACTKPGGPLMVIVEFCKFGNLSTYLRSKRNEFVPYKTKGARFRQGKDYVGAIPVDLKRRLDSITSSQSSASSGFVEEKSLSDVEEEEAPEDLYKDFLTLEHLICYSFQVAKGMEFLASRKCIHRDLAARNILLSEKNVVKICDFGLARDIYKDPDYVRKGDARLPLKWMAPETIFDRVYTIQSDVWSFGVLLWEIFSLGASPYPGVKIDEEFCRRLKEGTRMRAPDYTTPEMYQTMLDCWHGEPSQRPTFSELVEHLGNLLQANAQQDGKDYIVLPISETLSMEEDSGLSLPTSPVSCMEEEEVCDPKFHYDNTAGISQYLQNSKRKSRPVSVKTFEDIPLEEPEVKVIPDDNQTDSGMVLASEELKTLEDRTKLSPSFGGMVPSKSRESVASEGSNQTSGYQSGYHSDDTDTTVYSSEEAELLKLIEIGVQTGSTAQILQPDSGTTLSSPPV
Chain of RIP3 (Q9Y572 whole entry): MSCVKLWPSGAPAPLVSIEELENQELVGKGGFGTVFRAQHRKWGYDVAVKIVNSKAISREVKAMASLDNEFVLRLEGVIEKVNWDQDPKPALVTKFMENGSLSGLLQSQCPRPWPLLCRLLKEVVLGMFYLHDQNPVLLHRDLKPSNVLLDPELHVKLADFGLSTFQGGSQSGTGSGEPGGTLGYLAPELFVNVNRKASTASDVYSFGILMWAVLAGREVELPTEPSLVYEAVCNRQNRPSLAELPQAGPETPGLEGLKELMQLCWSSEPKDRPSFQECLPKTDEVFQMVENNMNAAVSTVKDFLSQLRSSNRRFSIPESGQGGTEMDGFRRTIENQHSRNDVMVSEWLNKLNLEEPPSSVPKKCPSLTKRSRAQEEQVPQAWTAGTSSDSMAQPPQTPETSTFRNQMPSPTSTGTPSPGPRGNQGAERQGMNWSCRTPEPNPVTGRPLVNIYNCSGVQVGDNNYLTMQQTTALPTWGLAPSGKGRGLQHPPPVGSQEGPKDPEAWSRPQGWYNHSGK

Compound	EC50 (HT-29 cells; [1]) [nM]	also measured
Cn1c(=O)c2c(nc(S(C)(=O)=O)n2C)n(CC#Cc2cccc3[nH]ccc23)c1=O [Compound 169]	1000 to 1e+06	
Cn1c(=O)c2c(nc(S(C)(=O)=O)n2C)n(CC#Cc2ccc3c(c2)NCCC3)c1=O [Compound 170]	1000 to 1e+06	
Cn1c(=O)c2c(nc(S(C)(=O)=O)n2C)n(CC#Cc2ccc3c(c2)NCC3)c1=O [Compound 171]	1000 to 1e+06	
Cn1c(=O)c2c(nc(S(=O)(=O)CC3CC3)n2C)n(Cc2cn(/C=C/CN)nn2)c1=O [Compound 172]	1000 to 1e+06	
CNC/C=C/c1ccc(Cn2c(=O)n(C)c(=O)c3c2nc(S(=O)(=O)CC2CC2)n3C)s1 [Compound 173]	1000 to 1e+06	
CNc1cc(C#CCn2c(=O)n(C)c(=O)c3c2nc(S(C)(=O)=O)n3C)ccc1N1CCOCC1 [Compound 174]	1000 to 1e+06	
CNc1cc(C#CCn2c(=O)n(C)c(=O)c3c2nc(S(C)(=O)=O)n3C)ccc1N1CCN(C)CC1 [Compound 175]	1000 to 1e+06	
CCCS(=O)(=O)c1nc2c(c(=O)n(C)c(=O)n2Cc2ccc(-c3cccc(NCC)c3)s2)n1C [Compound 176]	1000 to 1e+06	
CN(c1ccc(NC(=O)Nc2ccc(OC(F)(F)F)cc2)cc1)c1ccnc(Nc2cccc(S(N)(=O)=O)c2)n1 [GW806742X]		off-target activity against other kinases, including VEGFR2 (VEGFR2): off-target activity; off-target activity against RIP1 (RIP1): off-target activities; pMLKL immunofluorescence after TSZ stimulation (pMLKL): blocked the phosphorylation of MLKL completely; EC50 (HT-29 cells; Homo sapiens, HT-29, 24 h, read-out: EC50 (nM), potency in TSZ-induced necroptosis assays in HT-29 cells): 589 ± 12 nM; off-target activity against RIP3 (RIP3): off-target activities
COc1nccnc1NS(=O)(=O)c1ccc(NC(=O)/C=C/c2ccc([N+](=O)[O-])s2)cc1 [NSA, necrosulfonamide, reference compound]		pMLKL immunofluorescence after TSZ stimulation (pMLKL): small pMLKL dots were dispersed in the cytoplasm; EC50 (HT-29 cells; Experimental-section numbering (compound 1 = Series 1 compound 4), necroptosis induced for 24 h, mean of at least three independent analyses, read-out: EC50 (nM), potency in TSZ-induced necroptosis assays in HT-29 cells): 447 ± 32 nM
CCC(C)(C)C(=O)N(O)Cc1ccccc1 [RIPA-56]		pMLKL immunofluorescence after TSZ stimulation (pMLKL): blocked the phosphorylation of MLKL completely
